Experiments:
[1] = tested on: EV-A71; assay: antiviral CPE assay, anti-EV-A71 in LLC cells; assay type: cell-based, enterovirus 71 (EV-A71); conditions: SI50 = CC50/EC50
[2] = tested on: PV-1; assay type: cell-based, poliovirus-1; conditions: SI50 = CC50/EC50
[3] = tested on: CV-B3 (CVB3-H3); assay type: cell-based, coxsackievirus B3; conditions: SI50 = CC50/EC50
[4] = in vitro; conditions: human
[5] = tested on: CVB3-H3-C179F; assay type: cell-based, coxsackievirus B3

| SMILES | SI50 (EV-A71 in LLC cells) [1] | SI50 (PV-1 in HeLa cells) [2] | SI50 (CV-B3 in HeLa cells) [3] | CC50 [4] [µM] | CC50 ([4]; CC50 (anti-PV-1 in HeLa cells column)) [µM] | inhibition of CVB3-H3-C179F (missense mutation in the 2C coding domain) [5] |
| --- | --- | --- | --- | --- | --- | --- |
| CC(C)n1ncc2c(C(=O)Nc3cc(C(N)=O)ccc3F)cc(-c3cccs3)nc21 [JX073, N-(5-Carbamoyl-2-fluorophenyl)-1-isopropyl-6-(thiophen-2-yl)-1H-pyrazolo[3,4-b]pyridine-4-carboxamide] | SI50: 50.0 | SI50: 3.8 | SI50: 23.5 |  |  |  |
| CC(C)n1ncc2c(C(=O)Nc3cccc(S(N)(=O)=O)c3)cc(-c3cccs3)nc21 [JX025, 1-Isopropyl-N-(3-sulfamoylphenyl)-6-(thiophen-2-yl)-1H-pyrazolo[3,4-b]pyridine-4-carboxamide] | SI50: 19.2 | SI50: 10.0 |  | > 200 | 50 |  |
| CC(C)n1ncc2c(C(=O)Nc3cc(S(N)(=O)=O)ccc3F)cc(-c3cccs3)nc21 [JX068, N-(2-Fluoro-5-sulfamoylphenyl)-1-isopropyl-6-(thiophen-2-yl)-1H-pyrazolo[3,4-b]pyridine-4-carboxamide] | SI50: 50.0 | SI50: 2.9 | SI50: 25.7 |  |  |  |
| CC(C)n1ncc2c(C(=O)Nc3cccc(C(N)=O)c3)cc(-c3cccs3)nc21 [JX064, N-(3-Carbamoylphenyl)-1-isopropyl-6-(thiophen-2-yl)-1H-pyrazolo[3,4-b]pyridine-4-carboxamide] | SI50: 31.3 | SI50: 2.9 | SI50: 25.7 |  |  |  |
| CC(C)n1ncc2c(C(=O)Nc3ccc(F)cc3)cc(C3CC3)nc21 [JX038, 6-Cyclopropyl-N-(4-fluorophenyl)-1-isopropyl-1H-pyrazolo-[3,4-b]pyridine-4-carboxamide] | SI50: 3.9 |  | SI50: 3.0 |  |  |  |
| CC(C)n1ncc2c(C(=O)Nc3ccccc3F)cc(-c3cccs3)nc21 [JX001, N-(2-Fluorophenyl)-1-isopropyl-6-(thiophen-2-yl)-1H-pyrazolo[3,4-b]pyridine-4-carboxamide] | SI50: 21.7 | SI50: 1.8 | SI50: 8.9 |  |  | resistant |
| CC(C)n1ncc2c(C(=O)Nc3ccncn3)cc(-c3ccsc3)nc21 [JX059, 1-Isopropyl-N-(pyrimidin-4-yl)-6-(thiophen-3-yl)-1H-pyrazolo[3,4-b]pyridine-4-carboxamide] | SI50: >250.0 |  | SI50: >166.7 |  |  |  |
| CC(C)n1ncc2c(C(=O)Nc3ccccc3F)cc(-c3ccccc3)nc21 [JX002, N-(2-Fluorophenyl)-1-isopropyl-6-phenyl-1H-pyrazolo[3,4-b]pyridine-4-carboxamide] | SI50: >35.1 |  | SI50: 8.3 |  |  |  |
| CC(C)n1ncc2c(C(=O)Nc3cc(F)ccc3F)cc(-c3cccs3)nc21 [JX018, N-(2,5-Difluorophenyl)-1-isopropyl-6-(thiophen-2-yl)-1H-pyrazolo[3,4-b]pyridine-4-carboxamide] | SI50: 28.6 |  | SI50: >74.1 |  |  |  |
| CC(C)n1ncc2c(C(=O)Nc3cncnc3)cc(-c3cccs3)nc21 [JX066, 1-Isopropyl-N-(pyrimidin-5-yl)-6-(thiophen-2-yl)-1H-pyrazolo[3,4-b]pyridine-4-carboxamide] | SI50: 50.0 | SI50: 1.8 | SI50: 25.7 |  |  |  |
| CC(C)n1ncc2c(C(=O)Nc3ccc(F)cc3)cc(-c3ccsc3)nc21 [JX030, N-(4-Fluorophenyl)-1-isopropyl-6-(thiophen-3-yl)-1H-pyrazolo[3,4-b]pyridine-4-carboxamide] | SI50: >142.9 |  | SI50: 19.2 |  |  |  |
| CC(C)n1ccc2c(C(=O)Nc3cccnc3)cc(-c3cccs3)nc21 [JX062, 1-Isopropyl-N-(pyridin-3-yl)-6-(thiophen-2-yl)-1H-pyrrolo-[2,3-b]pyridine-4-carboxamide] | SI50: 31.3 |  | SI50: 13.8 |  |  |  |
| CC(C)n1ncc2c(C(=O)Nc3ccccn3)cc(-c3ccccc3)nc21 [JX070, 1-Isopropyl-6-phenyl-N-(pyridin-2-yl)-1H-pyrazolo[3,4-b]-pyridine-4-carboxamide] | SI50: 17.9 |  | SI50: 11.8 |  |  |  |
| CC(C)n1ncc2c(C(=O)Nc3ccncc3)cc(-c3cccs3)nc21 [JX042, 1-Isopropyl-N-(pyridin-4-yl)-6-(thiophen-2-yl)-1H-pyrazolo-[3,4-b]pyridine-4-carboxamide] | SI50: 15.8 |  | SI50: 10.0 |  |  |  |
| CC(C)n1ncc2c(C(=O)Nc3cccc(S(=O)(=O)N(C)C)c3)cc(-c3cccs3)nc21 [JX052, N-(3-(N,N-Dimethylsulfamoyl)phenyl)-1-isopropyl-6-(thiophen-2-yl)-1H-pyrazolo[3,4-b]pyridine-4-carboxamide] | SI50: >250.0 |  | SI50: 12.0 |  |  |  |
| CC(C)n1ncc2c(C(=O)Nc3cccnc3)cc(-c3cccs3)nc21 [JX056, 1-Isopropyl-N-(pyridin-3-yl)-6-(thiophen-2-yl)-1H-pyrazolo-[3,4-b]pyridine-4-carboxamide] | SI50: >400.0 | SI50: 2.5 | SI50: 62.5 |  |  |  |
| CC(C)n1ncc2c(C(=O)Nc3cccc(F)c3)cc(-c3cccs3)nc21 [JX021, N-(3-Fluorophenyl)-1-isopropyl-6-(thiophen-2-yl)-1H-pyrazolo[3,4-b]pyridine-4-carboxamide] | SI50: >83.3 |  | SI50: >250.0 |  |  |  |
| CC(C)n1ncc2c(C(=O)Nc3ccc(F)cc3)cc(-c3ccco3)nc21 [JX026, N-(4-Fluorophenyl)-6-(furan-2-yl)-1-isopropyl-1H-pyrazolo-[3,4-b]pyridine-4-carboxamide] | SI50: >76.9 |  | SI50: >83.0 |  |  |  |
